The values that follow come from PubChem BioAssay AID330 (DTP/NCI, 2004).

In this test the test system is P388 leukemia ip, CD2F1 mice, survival T/C. Description: NCI In Vivo Anticancer Drug Screen. Data for tumor model P388 Leukemia (intraperitoneal) in CD2F1 (CDF1) mice. The settings on record: endpoint: median survival time, higher = longer survival. In short, it runs like this:
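Mice carrying the transplanted tumor received test compound or vehicle. Survival was recorded in each group, and the value is the treated-group measurement divided by that of the vehicle-treated control group.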

Where [1] appears, read: dose: 60.0 mg/kg/injection, schedule: Q01DX005 (ip), vehicle: saline with Tween-80.
The mark [2] stands for this setting: dose: 120.0 mg/kg/injection, schedule: Q01DX005 (ip), vehicle: saline with Tween-80.
The mark [3] stands for this setting: dose: 240.0 mg/kg/injection, schedule: Q01DX005 (ip), vehicle: saline with Tween-80.
Setting [4] is: dose: 12.5 mg/kg/injection, schedule: Q01DX005 (ip), vehicle: Klucel (hydroxypropylcellulose) (HPC).
Where [5] appears, read: dose: 25.0 mg/kg/injection, schedule: Q01DX005 (ip), vehicle: Klucel (hydroxypropylcellulose) (HPC).
Setting [6] is: dose: 50.0 mg/kg/injection, schedule: Q01DX005 (ip), vehicle: Klucel (hydroxypropylcellulose) (HPC).
The mark [7] stands for this setting: dose: 100.0 mg/kg/injection, schedule: Q01DX005 (ip), vehicle: Klucel (hydroxypropylcellulose) (HPC).
The mark [8] stands for this setting: dose: 200.0 mg/kg/injection, schedule: Q01DX005 (ip), vehicle: Klucel (hydroxypropylcellulose) (HPC).
[9] abbreviates: dose: 100.0 mg/kg/injection, schedule: Q01DX001 (ip), vehicle: saline with Tween-80.
The mark [10] stands for this setting: dose: 200.0 mg/kg/injection, schedule: Q01DX001 (ip), vehicle: saline with Tween-80.
The mark [11] stands for this setting: dose: 400.0 mg/kg/injection, schedule: Q01DX001 (ip), vehicle: saline with Tween-80.

“And” between values parts separate entries of the source, which are not always exact repeats. Identical values can stand only once. Toxic doses and inconclusive results are not listed.

As for `Cc1cc(Nc2cc(=O)[nH]c(=O)[nH]2)ccc1N`, the T/C by setting is: under setting [1], 97 % of control; under setting [2], 97 % of control; under setting [3], 93 % of control.
Turning to `CC1=Nc2nc(=N)nc3cccc(n23)N1`, the T/C was 95 % of control under setting [1] and 104 % of control under setting [2].
Turning to `COc1cc([C@@H]2c3cc4c(cc3C[C@@H]3COC(=O)[C@H]32)OCO4)cc(OC)c1OC`, the T/C is, setting by setting: (dose: 12.5 mg/kg/injection, schedule: Q04DX002 (ip), vehicle: saline with Tween-80) 86 % of control; (dose: 25.0 mg/kg/injection, schedule: Q04DX002 (ip), vehicle: saline with Tween-80) 96 % of control; (dose: 50.0 mg/kg/injection, schedule: Q04DX002 (ip), vehicle: saline with Tween-80) 106 % of control.
As for `O=C1C2=C(Nc3ccccc3N2)OC1c1ccc2c(c1)OCO2` (stereo not given), the T/C (dose: 60.0 mg/kg/injection, schedule: Q01DX005 (ip), vehicle: Klucel (hydroxypropylcellulose) (HPC)) was 100 % of control; the T/C (dose: 120.0 mg/kg/injection, schedule: Q01DX005 (ip), vehicle: Klucel (hydroxypropylcellulose) (HPC)) was 86 % of control; the T/C (dose: 240.0 mg/kg/injection, schedule: Q01DX005 (ip), vehicle: Klucel (hydroxypropylcellulose) (HPC)) is 89 % of control.
On to `O=C(Nc1c[nH]c(=O)[nH]c1=O)C(Cl)Cl`, for which the T/C reads like this: (dose: 3.12 mg/kg/injection, schedule: Q01DX009 (ip), vehicle: saline) 93 % of control; (dose: 6.25 mg/kg/injection, schedule: Q01DX009 (ip), vehicle: saline) 97 % of control; (dose: 12.5 mg/kg/injection, schedule: Q01DX009 (ip), vehicle: saline) 101 % of control; (dose: 25.0 mg/kg/injection, schedule: Q01DX009 (ip), vehicle: saline) 100 % of control.
With `CN(C)CC(O)c1ccc2ccc3ccccc3c2c1` (stereo not given), the T/C by setting is: (dose: 100.0 mg/kg/injection, schedule: Q01DX001 (ip), vehicle: Klucel (hydroxypropylcellulose) (HPC)) 102 % of control; (dose: 200.0 mg/kg/injection, schedule: Q01DX001 (ip), vehicle: Klucel (hydroxypropylcellulose) (HPC)) 101 % of control; (dose: 400.0 mg/kg/injection, schedule: Q01DX001 (ip), vehicle: Klucel (hydroxypropylcellulose) (HPC)) 101 % of control.
Regarding `COc1ccc2ncc(COC(=O)Nc3ccccc3)c(COC(=O)Nc3ccccc3)c2c1`, the T/C is, setting by setting: under setting [4], 102 % of control and 106 % of control; under setting [5], 100 % of control and 94 % of control; under setting [6], 100 % of control and 95 % of control and 97 % of control.
With `CCOC(=O)C1Sc2c(c(=O)n(C)c3ccccc23)C1=O` (stereo not given), the T/C is, setting by setting: under setting [6], 101 % of control and 107 % of control and 110 % of control; under setting [7], 99 % of control and 105 % of control and 108 % of control; under setting [8], 108 % of control and 112 % of control and 123 % of control.
In the case of `CCOC(=O)C(=CNc1cccc(N(C)C)c1)C(=O)OCC`, the T/C reads like this: (dose: 50.0 mg/kg/injection, schedule: Q01DX005 (ip), vehicle: saline with Tween-80) 100 % of control; (dose: 100.0 mg/kg/injection, schedule: Q01DX005 (ip), vehicle: saline with Tween-80) 92 % of control; (dose: 200.0 mg/kg/injection, schedule: Q01DX005 (ip), vehicle: saline with Tween-80) 100 % of control.
For `O=C1Nc2ccccc2/C1=N/n1c(-c2ccccc2)nc2ccccc2c1=O`, the T/C under setting [4] was 97 % of control; the T/C under setting [5] was 97 % of control; the T/C under setting [6] was 87 % of control; the T/C under setting [7] is 90 % of control; the T/C under setting [8] is 89 % of control.
`CCC(c1ccc(OCC(=O)NCCCl)cc1)C(CC)c1ccc(OCC(=O)NCCCl)cc1` (stereo not given): the T/C is, setting by setting: (dose: 50.0 mg/kg/injection, schedule: Q01DX009 (ip), vehicle: saline) 97 % of control; (dose: 100.0 mg/kg/injection, schedule: Q01DX009 (ip), vehicle: saline) 93 % of control; (dose: 200.0 mg/kg/injection, schedule: Q01DX009 (ip), vehicle: saline) 88 % of control.
Turning to `CC(C)(C)C1=CC(CC(N)=O)(C(C)(C)C)OC1=O` (stereo not given), the T/C by setting is: under setting [6], 98 % of control; under setting [7], 100 % of control; under setting [8], 105 % of control.
For `COC1C(O)CC(OC2CC(OC3CC(O[C@@H]4C(=O)c5c(cc6cc(OC7CC(OC8CC(O)C(O)C(C)O8)C(O)C(C)O7)c(C)c(O)c6c5O)C[C@H]4[C@H](OC)C(=O)[C@@H](O)[C@@H](C)O)OC(C)C3O)OC(C)C2O)OC1C` (stereo not given in full), the T/C runs as follows: (dose: 375.0 micrograms/kg/injection, schedule: Q01DX009 (ip), vehicle: saline) 121 % of control; (dose: 1500.0 micrograms/kg/injection, schedule: Q01DX009 (ip), vehicle: saline) 170 % of control.
For the compound `O=S(=O)(Nc1ccc(CCc2ccc(NS(=O)(=O)c3ccccc3)cc2)cc1)c1ccccc1`, the T/C is 95 % of control under setting [9], 91 % of control under setting [10] and 91 % of control under setting [11].
As for `O=C(Cc1nc2cc(Cl)c(Cl)cc2nc1CC(=O)c1ccccc1)c1ccccc1`, the T/C reads like this: under setting [1], 102 % of control; under setting [2], 94 % of control; under setting [3], 96 % of control.
For the compound `O=C1CSC(=S)N1c1ccco1`, the T/C reads like this: (dose: 100.0 mg/kg/injection, schedule: Q01DX009 (ip), vehicle: saline with Tween-80) 100 % of control; (dose: 200.0 mg/kg/injection, schedule: Q01DX009 (ip), vehicle: saline with Tween-80) 100 % of control.
On to `Cc1ccc(C2=C(Cl)C(=O)NC2=O)s1`, for which the T/C is, setting by setting: (dose: 3.13 mg/kg/injection, schedule: Q01DX001 (ip), vehicle: saline) 100 % of control; (dose: 6.25 mg/kg/injection, schedule: Q01DX001 (ip), vehicle: saline) 99 % of control; (dose: 12.5 mg/kg/injection, schedule: Q01DX001 (ip), vehicle: saline) 95 % of control.
With `CCCn1c(C)nc2c([N+](=O)[O-])cc(C(F)(F)F)cc21`, the T/C is 98 % of control under setting [1], 97 % of control under setting [2] and 99 % of control under setting [3].
In the same order, the values of `Cc1cc(=O)n2[nH]c(-c3ccco3)cc2n1` are 104 % of control, 104 % of control and 105 % of control.
For `CCN(CC)CCn1cnc2c(=S)[nH]c(=S)[nH]c21`, the T/C is, setting by setting: under setting [9], 95 % of control; under setting [10], 97 % of control; under setting [11], 97 % of control.
